Source: patent US10835513B2, “Methods and treatments for the learning and memory deficits associated with Noonan syndrome” (The Regents of the University of California, priority 2013, dated 2020)

System: AAV-PTPN11^D61G-expressing mice
Test: Morris water maze (hidden platform, probe trial) in AAV-PTPN11^D61G-expressing mice treated with SL327
Assay type: in vivo
Conditions: for proximity to the target platform, probe trial: SL327 32 mg/kg intraperitoneal
Description: To test whether reducing Erk activity could reverse the memory deficit in AAV-PTPN11^D61G-expressing mice, we treated these mice with the MEK inhibitor SL327 or vehicle daily, 30 min before training.
SL327 (Tocris) was dissolved in DMSO (16 mg/ml) and was injected intraperitoneally once daily, 30 min before the water maze experiment at a dose of 32 mg/kg. The volume of a single injection was under 80 μl. Lovastatin (Mevinolin, Sigma) was prepared as previously described^21. Briefly, lovastatin was dissolved in ethanol (final concentration of 8%) and 1N NaOH was added to convert mevinolin to the sodium salt. The pH of the final solution (4 mg/ml) was adjusted to 7.5 with HCl. The Vehicle solution was prepared with the same procedure. Lovastatin was administered daily (subcutaneous injection, 10 mg/kg) for 3 days before the first training day of the water maze and 6 hr before training every day thereafter.
The coding sequence of human PTPN11 with or without the D61G mutation was subcloned into the HindIII-NsiI site of the AAV expression vector pSOFF. The resultant vector expresses mutant PTPN11 under the synthetic CBA promoter (CMV enhancer and chicken beta-actin promoter). Recombinant virus (rAAV5) was purified as previously described^32. Briefly, an iodixanol gradient purification was performed followed by ion exchange chromatography step which results in a 99% pure vector preparation as judged by silver stained-SDS acrylamide gel fractionation. After the chromatography, the buffer was exchanged and the virus was concentrated in Ringer's solution using a Biomax 100 K concentrator (Millipore). Vector titers were determined by Real Time PCR. Typical titers were 3.09×10^12 genome copies/ml. rAAV5-GFP expressing only GFP was used as a control. […]
In the hidden platform-version of Morris water maze, mice were trained with two blocks of 2 trials (ITI=1 min) spaced about 45 min apart. […] Memory was assessed in probe trials that were given after completion of training as described in the main text. […] Data were acquired and analyzed using WaterMaze software (Actimetrics).

`N#C/C(=C(/N)Sc1ccc(N)cc1)c1ccccc1C(F)(F)F` [SL327] was tested, and the “proximity to the target platform, probe trial” value (GFP control group) was 43.75±1.45 cm, the “proximity to the target platform, probe trial” value (PTPN11^D61G group) was 45.52±2.14 cm and the “time spent in the target quadrant, probe trial” value (PTPN11^D61G-expressing mice, SL327 32 mg/kg intraperitoneal daily, 30 min before training) was 37.25±3.50%.
